How the values were obtained:
[1] = target: T1, c-Met (cytoplasmic domain) (Homo sapiens, UniProt P08581); test: c-Met Kinase Assay (ELISA/TRF, PLC-γ substrate); type: biochemical; details: 3 μM ATP (Km level); read-out: c-Met Kinase Inhibition (IC50)
T1 construct: Reactions were initiated with 30 ng/mL c-Met (cytoplasmic domain, Invitrogen Corporation #PV3143); purchased Invitrogen Corporation PV3143
Summary of the method: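 Readout is TRF of europium anti-phosphotyrosine (PT66) bound to GST–PLC-γ substrate coated at 10 μg/mL, after a 15 min, 37 °C reaction started with 30 ng/mL c-Met cytoplasmic domain. Percent inhibition plotted against log compound concentration and fitted (variable slope) for IC50.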

[2] = target: baculovirus-expressed ALK (Homo sapiens, UniProt Q9UM73); test: ALK Kinase Assay (ELISA/TRF, PLC-γ substrate); type: biochemical; details: read-out: ALK Kinase Inhibition (IC50); also: 1 µM ATP (Km level)
Chain of baculovirus-expressed ALK (Q9UM73 19-1620): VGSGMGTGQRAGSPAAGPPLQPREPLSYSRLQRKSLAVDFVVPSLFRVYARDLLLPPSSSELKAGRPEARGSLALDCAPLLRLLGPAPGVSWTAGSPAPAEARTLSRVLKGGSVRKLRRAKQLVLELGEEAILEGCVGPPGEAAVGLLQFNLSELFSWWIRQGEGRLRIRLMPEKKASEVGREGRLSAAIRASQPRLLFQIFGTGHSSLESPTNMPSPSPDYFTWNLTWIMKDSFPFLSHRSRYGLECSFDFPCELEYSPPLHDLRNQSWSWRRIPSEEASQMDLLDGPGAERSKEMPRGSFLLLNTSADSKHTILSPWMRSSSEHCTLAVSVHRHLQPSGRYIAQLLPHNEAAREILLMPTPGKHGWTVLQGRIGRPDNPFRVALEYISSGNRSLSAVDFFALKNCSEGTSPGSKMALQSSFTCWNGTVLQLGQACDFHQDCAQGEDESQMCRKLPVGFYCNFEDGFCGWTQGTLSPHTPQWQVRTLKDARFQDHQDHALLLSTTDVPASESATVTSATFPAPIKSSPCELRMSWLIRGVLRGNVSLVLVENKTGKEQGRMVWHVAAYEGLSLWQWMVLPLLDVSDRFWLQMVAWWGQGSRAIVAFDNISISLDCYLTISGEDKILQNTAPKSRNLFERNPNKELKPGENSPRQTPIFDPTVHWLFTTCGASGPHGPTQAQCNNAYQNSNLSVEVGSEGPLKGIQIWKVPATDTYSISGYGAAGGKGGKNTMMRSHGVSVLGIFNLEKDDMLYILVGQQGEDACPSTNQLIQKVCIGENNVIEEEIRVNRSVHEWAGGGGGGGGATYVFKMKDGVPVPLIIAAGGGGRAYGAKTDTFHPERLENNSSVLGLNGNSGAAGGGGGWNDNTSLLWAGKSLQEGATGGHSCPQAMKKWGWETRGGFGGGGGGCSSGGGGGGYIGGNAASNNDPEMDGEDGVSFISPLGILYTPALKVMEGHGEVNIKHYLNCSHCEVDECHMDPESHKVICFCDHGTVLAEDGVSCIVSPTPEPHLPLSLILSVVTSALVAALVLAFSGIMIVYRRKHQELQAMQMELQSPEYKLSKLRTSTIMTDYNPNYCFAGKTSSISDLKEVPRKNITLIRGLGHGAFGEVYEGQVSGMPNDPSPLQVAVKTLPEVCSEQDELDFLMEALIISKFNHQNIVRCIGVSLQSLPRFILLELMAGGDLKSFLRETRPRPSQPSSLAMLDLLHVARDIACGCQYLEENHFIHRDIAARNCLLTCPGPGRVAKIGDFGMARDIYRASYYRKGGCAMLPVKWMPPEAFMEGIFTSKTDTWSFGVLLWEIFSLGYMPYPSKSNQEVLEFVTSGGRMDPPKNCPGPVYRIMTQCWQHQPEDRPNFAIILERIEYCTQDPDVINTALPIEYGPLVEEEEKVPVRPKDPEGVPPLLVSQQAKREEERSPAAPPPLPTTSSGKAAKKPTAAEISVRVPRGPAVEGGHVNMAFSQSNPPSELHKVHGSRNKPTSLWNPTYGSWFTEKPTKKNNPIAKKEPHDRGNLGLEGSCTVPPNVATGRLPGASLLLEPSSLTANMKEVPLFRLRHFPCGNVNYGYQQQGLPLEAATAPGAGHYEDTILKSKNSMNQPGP
Summary of the method: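 Read-out: TRF of europium-labeled anti-phosphotyrosine antibody bound to phosphorylated GST–PLC-γ coated at 10 μg/mL. Kinase step used 30 ng/ml ALK, 37° C, 15 minutes. IC50 values fitted by nonlinear sigmoidal dose-response (variable slope).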

T1 sequence (P08581 956-1390 limits assumed): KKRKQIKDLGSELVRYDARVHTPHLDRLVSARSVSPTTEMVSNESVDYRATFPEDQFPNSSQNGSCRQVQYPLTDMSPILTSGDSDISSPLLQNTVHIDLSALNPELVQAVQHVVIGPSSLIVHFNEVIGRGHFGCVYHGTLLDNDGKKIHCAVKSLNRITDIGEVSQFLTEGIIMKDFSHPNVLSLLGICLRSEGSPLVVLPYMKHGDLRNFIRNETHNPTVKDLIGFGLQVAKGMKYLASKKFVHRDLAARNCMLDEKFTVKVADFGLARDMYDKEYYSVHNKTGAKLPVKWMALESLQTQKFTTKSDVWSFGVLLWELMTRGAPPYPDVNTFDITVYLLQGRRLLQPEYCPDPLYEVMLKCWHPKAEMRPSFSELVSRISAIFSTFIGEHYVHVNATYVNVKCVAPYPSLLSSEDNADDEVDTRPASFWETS

SMILES	IC50 [1] [µM]	IC50 [2] [µM]
O=C(c1cnc2c(c1)N(Cc1cc(Cl)ccc1Cl)CCN2)N1CCC(Cc2ccccc2)CC1 [Example 215, (4-Benzylpiperidin-1-yl)-[1-(2,5-dichlorobenzyl)-1,2,3,4-tetrahydropyrido[2,3-b]pyrazin-7-yl]methanone]	10 to 100	10 to 100
O=C(c1cnc2c(c1)N(Cc1cc(Cl)ccc1Cl)CCN2)N1CCC2(CC1)C(=O)NCN2c1ccccc1 [Example 216, 8-[1-(2,5-Dichlorobenzyl)-1,2,3,4-tetrahydropyrido[2,3-b]pyrazine-7-carbonyl]-1-phenyl-1,3,8-triaza-spiro[4.5]decan-4-one]	> 100	1 to 10
O=C(c1cnc2c(c1)N(Cc1cc(Cl)ccc1Cl)CCN2)N1CCN(c2ncnc3ccsc23)CC1 [Example 217, [1-(2,5-Dichlorobenzyl)-1,2,3,4-tetrahydropyrido[2,3-b]pyrazin-7-yl]-(4-thieno[3,2-d]pyrimidin-4-yl-piperazin-1-yl)methanone]	> 100	1 to 10
COc1ccc(CN2CCN(C(=O)c3cnc4c(c3)N(Cc3cc(Cl)ccc3Cl)CCN4)CC2)cc1 [Example 218, [1-(2,5-Dichlorobenzyl)-1,2,3,4-tetrahydropyrido[2,3-b]pyrazin-7-yl]-[4-(4-methoxybenzyl)piperazin-1-yl]methanone]	10 to 100	10 to 100
O=C(c1ccccc1)N1CCN(C(=O)c2cnc3c(c2)N(Cc2cc(Cl)ccc2Cl)CCN3)CC1 [Example 219, (4-Benzoylpiperazin-1-yl)-[1-(2,5-dichlorobenzyl)-1,2,3,4-tetrahydropyrido[2,3-b]pyrazin-7-yl]methanone]	10 to 100	1 to 10
O=C(c1cnc2c(c1)N(Cc1cc(Cl)ccc1Cl)CCN2)N1CCC(c2noc3cc(F)ccc23)CC1 [Example 221, [1-(2,5-Dichlorobenzyl)-1,2,3,4-tetrahydropyrido[2,3-b]pyrazin-7-yl]-[4-(6-fluorobenzo[d]isoxazol-3-yl)piperidin-1-yl]methanone]	> 100	10 to 100
O=C(c1cnc2c(c1)N(Cc1cc(Cl)ccc1Cl)CCN2)N1CCN(c2cccc(Cl)c2)CC1 [Example 222, [4-(3-Chlorophenyl)piperazin-1-yl]-[1-(2,5-dichlorobenzyl)-1,2,3,4-tetrahydropyrido[2,3-b]pyrazin-7-yl]methanone]	10 to 100	10 to 100
O=C(NCCc1ccccn1)c1cnc2c(c1)N(Cc1cc(Cl)ccc1Cl)CCN2 [Example 223, 1-(2,5-Dichlorobenzyl)-1,2,3,4-tetrahydropyrido[2,3-b]pyrazine-7-carboxylic acid (2-pyridin-2-yl-ethyl)amide]	> 100	1 to 10
CCOC(=O)N1CCC(NC(=O)c2cnc3c(c2)N(Cc2cc(Cl)ccc2Cl)CCN3)CC1 [Example 224, 4-{[1-(2,5-Dichlorobenzyl)-1,2,3,4-tetrahydropyrido[2,3-b]pyrazine-7-carbonyl]amino}piperidine-1-carboxylic acid ethyl ester]	10 to 100	1 to 10
O=C(NC1CCN(Cc2ccccc2)CC1)c1cnc2c(c1)N(Cc1cc(Cl)ccc1Cl)CCN2 [Example 225, 1-(2,5-Dichlorobenzyl)-1,2,3,4-tetrahydropyrido[2,3-b]pyrazine-7-carboxylic acid (1-benzyl-piperidin-4-yl)amide]	10 to 100	1 to 10
O=C(NCC(c1ccccc1)c1ccccc1)c1cnc2c(c1)N(Cc1cc(Cl)ccc1Cl)CCN2 [Example 226, 1-(2,5-Dichlorobenzyl)-1,2,3,4-tetrahydropyrido[2,3-b]pyrazine-7-carboxylic acid (2,2-diphenylethyl)amide]	10 to 100	10 to 100
CC(=O)N1CCN(C(=O)c2cnc3c(c2)N(Cc2cc(Cl)ccc2Cl)CCN3)CC1 [Example 227, 1-{4-[1-(2,5-Dichlorobenzyl)-1,2,3,4-tetrahydropyrido[2,3-b]pyrazine-7-carbonyl]piperazin-1-yl}ethanone]	10 to 100	10 to 100
O=C(NCc1cccc(Cl)c1)c1cnc2c(c1)N(Cc1cc(Cl)ccc1Cl)CCN2 [Example 228, 1-(2,5-Dichlorobenzyl)-1,2,3,4-tetrahydropyrido[2,3-b]pyrazine-7-carboxylic acid 3-chlorobenzylamide]	10 to 100	1 to 10
O=C(NCc1ccc(OC(F)(F)F)cc1)c1cnc2c(c1)N(Cc1cc(Cl)ccc1Cl)CCN2 [Example 230, 1-(2,5-Dichlorobenzyl)-1,2,3,4-tetrahydropyrido[2,3-b]pyrazine-7-carboxylic acid 4-(trifluoromethoxy)benzylamide]	> 100	1 to 10
O=C(c1cnc2c(c1)N(Cc1cc(Cl)ccc1Cl)CCN2)N1CCC(N2CCOCC2)CC1 [Example 231, [1-(2,5-Dichlorobenzyl)-1,2,3,4-tetrahydropyrido[2,3-b]pyrazin-7-yl]-(4-morpholin-4-yl-piperidin-1-yl)methanone]	10 to 100	1 to 10
O=C(NCCc1cccs1)c1cnc2c(c1)N(Cc1cc(Cl)ccc1Cl)CCN2 [Example 232, 1-(2,5-Dichlorobenzyl)-1,2,3,4-tetrahydropyrido[2,3-b]pyrazine-7-carboxylic acid (2-thiophen-2-yl-ethyl)amide]	> 100	0.1 to 1
O=C(NC(c1ccccc1)c1ccccc1)c1cnc2c(c1)N(Cc1cc(Cl)ccc1Cl)CCN2 [Example 233, 1-(2,5-Dichlorobenzyl)-1,2,3,4-tetrahydropyrido[2,3-b]pyrazine-7-carboxylic acid benzhydrylamide]	10 to 100	1 to 10
O=C(NCc1ccncc1)c1cnc2c(c1)N(Cc1cc(Cl)ccc1Cl)CCN2 [Example 234, 1-(2,5-Dichlorobenzyl)-1,2,3,4-tetrahydropyrido[2,3-b]pyrazine-7-carboxylic acid (pyridin-4-ylmethyl)amide]	> 100	1 to 10
O=C(NCc1cccnc1)c1cnc2c(c1)N(Cc1cc(Cl)ccc1Cl)CCN2 [Example 235, 1-(2,5-Dichlorobenzyl)-1,2,3,4-tetrahydropyrido[2,3-b]pyrazine-7-carboxylic acid (pyridin-3-ylmethyl)amide]	10 to 100	1 to 10
CC(C)NC(=O)CN1CCN(C(=O)c2cnc3c(c2)N(Cc2cc(Cl)ccc2Cl)CCN3)CC1 [Example 236, 2-{4-[1-(2,5-Dichlorobenzyl)-1,2,3,4-tetrahydropyrido[2,3-b]pyrazine-7-carbonyl]piperazin-1-yl}-N-isopropylacetamide]	10 to 100	1 to 10

The remaining lines, values ahead:

IC50 [1] [µM]	IC50 [2] [µM]	SMILES
10 to 100	1 to 10	O=C(c1cnc2c(c1)N(Cc1cc(Cl)ccc1Cl)CCN2)N1CCC(n2c(=O)[nH]c3ccccc32)CC1 [Example 209, 1-{1-[1-(2,5-Dichlorobenzyl)-1,2,3,4-tetrahydropyrido[2,3-b]pyrazine-7-carbonyl]piperidin-4-yl}-1,3-dihydrobenzoimidazol-2-one]
10 to 100	1 to 10	COc1ccccc1N1CCN(C(=O)c2cnc3c(c2)N(Cc2cc(Cl)ccc2Cl)CCN3)CC1 [Example 210, [1-(2,5-Dichlorobenzyl)-1,2,3,4-tetrahydropyrido[2,3-b]pyrazin-7-yl]-[4-(2-methoxyphenyl)piperazin-1-yl]methanone]
10 to 100	10 to 100	O=C(c1cnc2c(c1)N(Cc1cc(Cl)ccc1Cl)CCN2)N1CCN(c2cccc(C(F)(F)F)c2)CC1 [Example 211, [1-(2,5-Dichlorobenzyl)-1,2,3,4-tetrahydropyrido[2,3-b]pyrazin-7-yl]-{4-[3-(trifluoromethyl)phenyl]piperazin-1-yl}methanone]
1 to 10	1 to 10	O=C(c1cnc2c(c1)N(Cc1cc(Cl)ccc1Cl)CCN2)N1CCC(c2ccccc2)CC1 [Example 212, [1-(2,5-Dichlorobenzyl)-1,2,3,4-tetrahydropyrido[2,3-b]pyrazin-7-yl]-(4-phenylpiperidin-1-yl)methanone]
10 to 100	1 to 10	O=C(c1cnc2c(c1)N(Cc1cc(Cl)ccc1Cl)CCN2)N1CCN(c2ccc(Cl)c(Cl)c2)CC1 [Example 213, [1-(2,5-Dichlorobenzyl)-1,2,3,4-tetrahydropyrido[2,3-b]pyrazin-7-yl]-[4-(3,4-dichlorophenyl)-piperazin-1-yl]methanone]
10 to 100	10 to 100	O=C(c1cnc2c(c1)N(Cc1cc(Cl)ccc1Cl)CCN2)N1CCN(C(c2ccccc2)c2ccccc2)CC1 [Example 214, (4-Benzhydrylpiperazin-1-yl)-[1-(2,5-dichlorobenzyl)-1,2,3,4-tetrahydropyrido[2,3-b]pyrazin-7-yl]methanone]
1 to 10	1 to 10	O=C(c1cnc2c(c1)N(Cc1cc(Cl)ccc1Cl)CCN2)N1CCN(c2nccc3occc23)CC1 [Example 220, [1-(2,5-Dichlorobenzyl)-1,2,3,4-tetrahydropyrido[2,3-b]pyrazin-7-yl]-(4-furo[3,2-c]pyridin-4-yl-piperazin-1-yl)methanone]
1 to 10	1 to 10	O=C(c1cnc2c(c1)N(Cc1cc(Cl)ccc1Cl)CCN2)N1CCN(CCc2ccccn2)CC1 [Example 229, [1-(2,5-Dichlorobenzyl)-1,2,3,4-tetrahydropyrido[2,3-b]pyrazin-7-yl]-[4-(2-pyridin-2-yl-ethyl)piperazin-1-yl]methanone]
1 to 10	1 to 10	Cc1cc(N2CCN(C(=O)c3cnc4c(c3)N(Cc3cc(Cl)ccc3Cl)CCN4)CC2)c2ccccc2n1 [Example 237, [1-(2,5-Dichlorobenzyl)-1,2,3,4-tetrahydropyrido[2,3-b]pyrazin-7-yl]-[4-(2-methylquinolin-4-yl)piperazin-1-yl]methanone]

Reference: patent US7601716B2, “Pyridopyrazines and derivatives thereof as ALK and c-Met inhibitors” (Cephalon, Inc., priority 2006, dated 2009)
